Assays:
[1] = tested on: human umbilical vein endothelial cells (HUVECs); experiment: HUVEC proliferation ([3H]-thymidine incorporation); format: cell-based; details: inhibitor exposure for 3 hours, without EPO
Procedure: To investigate EPO-induced angiogenesis through mechanisms involving pro-angiogenic factors, the present inventor measured the proliferation of EPO-treated HUVECs in the presence of various pro-angiogenic factor inhibitors. To this end, HUVECs (2×10^5 cells/well) were cultured on fibronectin-coated 12-well plates in EBM-2. The cultured HUVECs were treated with or without 100 IU/ml EPO for 48 hours, and then exposed for 3 hours to (a) 0.25 mg/ml bevacizumab, (b) 100 nM of PD173074; an inhibitor of bFGF (Calbiochem, San Diego, Calif.), (c) 20 μM of tyrphostin AG 1296; a selective inhibitor of PDGF (Sigma), (d) a combination of bevacizumab, PD173074 and tyrphostin, and to (e) 100 nM wortmannin; a phosphatidylinositol 3-kinaz (PI 3-K) inhibitor (Sigma). Upon the completion of the experiment, the cells were washed with PBS and then incubated with 1 μCi/ml medium [^3H]-thymidine (NEN, Boston, Mass., USA) for 5 h at 37° C. Thereafter, 0.5 ml cold 10% Trichloroacetic acid (TCA) was added into each well for another 30 min at 4° C. To extract the ^3H-thymidine labeled DNA, 0.5 ml 1N NaOH was added to each well for 10 min at room temperature, and then 0.5 ml 1N HCl was added and mixed well. Samples of mixture solution (0.5 ml) was taken from each well and added to scintillation vials for the measurement of [^3H]-thymidine incorporation to DNA (cpm/mg protein). Duplicate cell counts were averaged for 3 experiments. Data were expressed as the percentage of control.

[2] = tested on: human umbilical vein endothelial cells (HUVECs); experiment: In vitro tube formation of HUVECs on matrigel; format: cell-based
Procedure: The in vitro angiogenic potential of VEGF and EPO was measured by assessment of their ability to form tubes of endothelial cells on matrigel. To this end, human umbilical vein endothelial cells (HUVECs, LONZA, USA) were first cultured on fibronectin-coated 6-well plates in endothelial basal medium-2 (EBM-2, PromoCell, USA) until confluence and then the cells were treated with 0, 20 or 100 IU/ml EPO for 48 hours before their use in the assay (FIG. 7A). In a second experiment (FIG. 7B), HUVECs were exposed to 0, 100 IU/ml EPO or 200 ng/ml VEGF for 48 hours in EBM-2 with or without 0.25 mg/ml bevacizumab (Avastin®, Genentech, San Francisco, Calif., USA), a humanized monoclonal antibody that antagonizes the actions of VEGF. After 48 hours, the untreated HUVECs, the VEGF- and EPO-treated HUVECs, and the VEGF+bevacizumab- and EPO+bevacizumab-treated HUVECs were detached gently by 0.5% trypsin/EDTA, and then suspended in EBM-2. At the same time, frozen matrigel (Sigma Aldrich, St Louis Mo., USA) was thawed, and spread onto 96-well plates ([…]) at room temperature for 30 minutes to allow solidification. […] After 24 hours, the non-integrated cells were removed by washing and tube formation on the matrigel was assessed under a light microscope at 10× magnification. […]

[3] = tested on: VEGF; experiment: Plasma VEGF concentration and fat graft VEGF content (ELISA); format: in vivo, CD-1 nude mice; details: VEGF-treated (200 ng/100 μl PBS) vs PBS-treated fat grafts; week 15
Procedure: (§1) The first study comprised 30 seven-week-old female CD-1 nude mice (Harlan, Jerusalem, Israel). These mice were housed in cages in a room with an artificial 12-h light/dark cycle at a constant temperature range (24±2° C.) and relative humidity (55±10%). The mice were acclimated for one week prior to the study, and fed a standard laboratory chow and water ad libitum. The 30 mice were randomly divided into three equal groups and treated as follows: Group 1 mice were injected with 1 ml of human fat and were treated with sterile PBS (control group). Group 2 mice were injected with 1 ml human fat and were treated with 1000 IU/kg EPO (low-dose EPO group). […]
The duration of the study period of both experiments was 15 weeks from the start of fat transplantation. […] VEGF and EPO concentrations were determined in homogenates of samples of the fat grafts using commercial enzyme-linked immunosorbent assays (Quantikine® VEGF immunoassay Kit and Quantikine® WD® Erythropoietin Kit, R&D Systems, MN, USA) in accordance with the manufacturer's instructions.
(§2) After 15 weeks, all mice were humanely killed and the fat grafts were carefully dissected from their scalps (FIG. 1C). Each fat graft was weighed and the volume of the fat graft was measured by the liquid overflow method as previously described [Ayhan et al. (2001) Aesthetic Plast Surg 25:338-342]. […]

[4] = tested on: human fat grafts; experiment: Fat graft weight and volume 15 weeks after transplantation; format: in vivo, CD-1 nude mice; details: VEGF 200 ng/100 μl PBS every three days for 18 days; week 15; second experiment
Source text: Fat was harvested from the thigh of a person by suction-assisted lipectomy under […] anesthesia. The fat was aspirated under local anesthesia using a 14-gauge blunt cannula, and then processed under sterile conditions for subsequent grafting into nude mice within two hours of its collection according to previously published protocols [Ullmann et al. (2005) Dermatol Surg 31:1304-7; Kurita et al. (2008) Plast Reconstr Surg 121:1033-1041].
as §1, §2

[5] = tested on: human fat grafts; experiment: Histological analysis of the dissected fat grafts (grades 0 to 5); format: in vivo, CD-1 nude mice; details: grade on a scale of 0 to 5; VEGF 200 ng/100 μl PBS; week 15
Procedure: The first study comprised 30 seven-week-old female CD-1 nude mice (Harlan, Jerusalem, Israel). These mice were housed in cages in a room with an artificial 12-h light/dark cycle at a constant temperature range (24±2° C.) and relative humidity (55±10%). The mice were acclimated for one week prior to the study, and fed a standard laboratory chow and water ad libitum. The 30 mice were randomly divided into three equal groups and treated as follows: Group 1 mice were injected with 1 ml of human fat and were treated with sterile PBS (control group). Group 2 mice were injected with 1 ml human fat and were treated with 1000 IU/kg EPO (low-dose EPO group). Group 3 mice were injected with 1 ml human fat and were treated with 5000 IU/kg EPO (high-dose EPO group). The fat was injected subcutaneously into the scalp using a 14G needle while the animals were manually restrained. Immediately following fat transplantation, the PBS-treated fat grafts were injected with 100 μl PBS (control group), and the EPO-treated fat grafts were injected with either 20 IU EPO/100 μl PBS (low-dose EPO group) or 100 IU EPO/100 μl PBS (high-dose EPO group) every three days for 18 days (a total of 6 injections). EPO was purchased as an injection ampoule (ARANESP®, Amgen AG, Zug, Switzerland) which contained 150 μg/ml (18,000 IU) of EPO.
The second animal study comprised 20 seven-week-old female CD-1 nude mice, and differed from the first study in that the fat was treated with VEGF (2 μg/ml, Sigma Aldrich, Mo., USA) following implantation. 10 mice were injected with fat followed by 200 ng VEGF/100 μl PBS injections every three days for a total of 18 days. The remaining 10 mice made up a second control group that was treated in an identical manner to the control group in the first study. Post-operative analgesics and antibiotics were not administered to the mice in the two experiments.
(§3) Histological slides of the formalin-maintained samples were prepared and then stained with hematoxylin and eosin using standard procedures. Immunohistochemistry was performed using rabbit monoclonal antibodies against tissue CD31, VEGFR-2 and EPOR, and goat polyclonal IgG against VEGF (R&D Systems, Minneapolis Minn., USA), and CD68 (Dako, Glostrup, Denmark). The paraffin-embedded fat graft sections were incubated with the antibodies overnight at room temperature followed by incubation with appropriate secondary antibodies [Li et al. (2005) J Cell Biochem 95: 559-570]. Upon completion of the incubations, the specimens were counterstained with hematoxylin. Mouse IgG was used as a negative control. […]

[6] = tested on: CD31-positive endothelial cells; experiment: Microvascular density (MVD, CD31) in fat grafts; format: in vivo, CD-1 nude mice
Procedure: Quantification of macrophage infiltration in the fat grafts was estimated by counting the number of CD68-positive cells in five fields per fat graft in all fat graft sections. Microvascular density (MVD) in fat grafts was determined in five regions of interest where the CD31 antibody signal was the most intense in each section in all of the fat graft sections. The number of macrophages and blood vessels in each region was counted under a light microscope at 400× magnification. The assessment in each fat graft was made by calculating the mean result in two different sections per fat graft and five different fields of view per section.
The paraffin-embedded fat graft sections were incubated overnight at room temperature with a monoclonal antibody against tissue CD31 (R&D Systems, Minneapolis Minn., USA) as previously described [Li et al. (2005) J Cell Biochem 95:559-570]. Upon completion of the incubation, the specimens were counterstained with hematoxylin. Mouse IgG was used as a negative control. The microvascular density (MVD) was determined in five regions of interest where the CD31 antibody signal was most intense. The number of blood vessels in each region was counted under a light microscope at […] magnification.

[7] = tested on: bFGF, IGF-1, PDGF-BB, VEGFR-2, EPOR, MMP-2, PKB, phosphoPKB, caspase 3, cytochrome c; experiment: Expression of angiogenic, survival and pro-apoptotic factors in fat grafts (Western blotting, immunohistochemistry); format: in vivo, CD-1 nude mice; details: VEGF-treated vs PBS-treated fat grafts, Western blot; week 15
Procedure: as §3
The expression levels of the angiogenic factors, bFGF, IGF-1, PDGF-BB VEGFR-2, EPOR and MMP-2, the cell survival factor PKB and phosphorylated PKB, and the pro-apoptotic factors caspase 3 and cytochrome c were determined in homogenates of the harvested fats grafts by Western blotting. […] The resultant bands were quantified by densitometry.

[8] = tested on: human fat grafts; experiment: Extent of apoptosis in fat grafts (TUNEL assay); format: in vivo, CD-1 nude mice; details: VEGF-treated (200 ng/100 μl PBS) vs PBS-treated fat grafts; week 15
Procedure: The extent of apoptosis in all fat grafts was assessed by the terminal deoxyuridine triphosphate nick end labeling (TUNEL) assay using a commercial kit (ApopTag® Plus Fluorescein Kit, CHEMICON, CA, USA), in accordance with the manufacturer's instructions. Duplicates were carried out for each sample and were processed by fluorescence-activated cell sorting (FACS, Becton Dickinson, N.J., USA). Data was analyzed using the Macintosh CELLQuest software program (Becton Dickinson).

For CCN(CC)CCCCNc1ncc2cc(-c3cc(OC)cc(OC)c3)c(NC(=O)NC(C)(C)C)nc2n1 [PD173074], the HUVEC proliferation [1] was “reduced HUVEC proliferation significantly”.

For bevacizumab [reference compound], the HUVEC tube formation ([2]; 0.25 mg/ml bevacizumab in VEGF-treated HUVECs) was “substantially reduced” and the HUVEC proliferation [1] was “reduced HUVEC proliferation significantly”.

For tyrphostin AG 1296, the HUVEC proliferation [1] was “reduced HUVEC proliferation significantly”.

For “vascular endothelial growth factor [VEGF]”, the “VEGF content in fat grafts” value [3] was “higher than, but not statistically different from”, the “fat graft Volume” value [4] was 0.36 ± 0.2 mL and the “fat graft Weight” value [4] was 0.35 ± 0.2 g. The Cyst/Vacuoles [5] was 3.3 ± 1.0, the Fibrosis [5] was 2.9 ± 0.7 and the Inflammation [5] was 4.0 ± 1.2. For the same molecule, the Integration [5] was 3.2 ± 0.9, the “microvascular density (MVD)” value ([6]; VEGF-treated (200 ng/100 μl PBS) vs PBS-treated fat grafts, week 15) was “higher than, but not statistically different from” and the “vessel morphology in fat grafts” value ([6]; VEGF-treated fat grafts (data not shown)) was “unorganized vessel formation and perivascular hemorrhage”. For the same molecule, the “expression levels of caspase 3 and cytochrome c” value [7] was “no statistical differences”, the “extent of apoptosis (TUNEL)” value [8] was “greater than that in the PBS-treated fat grafts” and the HUVEC tube formation ([2]; 200 ng/ml VEGF, without bevacizumab (FIG. 7B)) was “significantly enhanced”.

— patent US20120315254A1, “METHODS AND COMPOSITIONS FOR ENHANCING FAT GRAFT SURVIVAL” (Sebana Medical Ltd., priority 2010, published 2012)
